Test results: patent EP0295604A1, “(E)-2-(p-Fluorophenethyl)-3-fluoroallylamine” (MERRELL DOW PHARMACEUTICALS INC., priority 1987, dated 1988)

Assays:
[1] = test system: MAO-A; assay: Chronic (14 day) oral administration, rat tissue MAO-A activity; format: in vivo
Description: Following repeated daily administration for 14 days, (E)-2-p-fluorophenethyl)-3-fluoroallylamine remained selective for the MAO-B enzyme. From the irreversible inhibition, mode of action and the long half-life of the enzyme, a lower daily dose is needed to inhibit the enzyme.

[2] = test system: MAO-B; assay: Chronic (14 day) oral administration, rat tissue MAO-B activity; format: in vivo
[3] = molecular target: T1, rat brain mitochondrial MAO-B (Rattus norvegicus, UniProt P19643); assay: In vitro inhibition of rat brain mitochondrial MAO-B; format: biochemical; conditions: MAO-A vs MAO-B IC50
T1 sequence (P19643 1-520): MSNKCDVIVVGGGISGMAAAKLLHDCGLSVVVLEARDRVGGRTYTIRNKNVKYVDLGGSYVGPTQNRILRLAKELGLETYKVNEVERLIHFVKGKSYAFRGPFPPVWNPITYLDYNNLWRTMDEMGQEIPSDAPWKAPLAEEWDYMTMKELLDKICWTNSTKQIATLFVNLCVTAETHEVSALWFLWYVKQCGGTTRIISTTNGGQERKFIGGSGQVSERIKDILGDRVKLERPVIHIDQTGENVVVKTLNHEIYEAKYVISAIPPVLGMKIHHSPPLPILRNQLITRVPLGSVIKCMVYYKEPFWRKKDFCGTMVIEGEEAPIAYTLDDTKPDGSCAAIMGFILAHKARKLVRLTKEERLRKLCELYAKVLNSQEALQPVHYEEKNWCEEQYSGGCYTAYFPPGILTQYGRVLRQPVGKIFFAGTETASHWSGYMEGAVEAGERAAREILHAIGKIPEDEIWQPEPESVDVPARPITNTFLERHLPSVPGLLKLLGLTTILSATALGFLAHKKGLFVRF

[4] = test system: Striatal dopamine; assay: Prevention of MPTP neurotoxicity (striatal dopamine); format: in vivo; conditions: mice
Description: MPTP given parenterally to mice depletes striatal dopamine. This effect can be prevented by MAO-B, but not by MAO-A inhibitor.

[5] = molecular target: T2, rat brain mitochondrial MAO-A (Rattus norvegicus, UniProt P21396); assay: In vitro inhibition of rat brain mitochondrial MAO-A; format: biochemical
T2 construct: from tissue; host or cells: rat brain mitochondria
T2 sequence (P21396 1-526): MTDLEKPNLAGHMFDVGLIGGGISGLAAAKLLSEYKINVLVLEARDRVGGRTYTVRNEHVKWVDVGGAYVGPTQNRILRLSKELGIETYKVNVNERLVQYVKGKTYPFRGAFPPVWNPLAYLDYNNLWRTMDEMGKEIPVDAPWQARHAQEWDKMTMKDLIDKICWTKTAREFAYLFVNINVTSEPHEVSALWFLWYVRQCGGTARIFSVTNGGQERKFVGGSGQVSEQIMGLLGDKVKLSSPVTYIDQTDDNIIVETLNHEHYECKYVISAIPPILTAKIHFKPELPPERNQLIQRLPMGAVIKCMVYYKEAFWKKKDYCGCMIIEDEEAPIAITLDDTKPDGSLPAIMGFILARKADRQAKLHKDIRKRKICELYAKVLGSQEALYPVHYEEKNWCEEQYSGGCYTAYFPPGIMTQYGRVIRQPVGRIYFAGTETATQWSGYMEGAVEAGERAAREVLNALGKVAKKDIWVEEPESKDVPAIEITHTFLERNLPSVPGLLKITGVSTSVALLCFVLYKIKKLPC
Description: In vivo, the compound is active orally, is potent and with a selectivity ratio of 44 remains selective for MAO-B.

[6] = test system: tachycardia response to tyramine; assay: Potentiation of the cardiovascular effects of tyramine (tachycardia response); format: in vivo; conditions: for Tyramine potentiation ratio i.d.: intraduodenal tyramine 0.3-50 mg/kg; for Tyramine potentiation ratio i.v.: intravenous tyramine 1.25-80 µg/kg
Description: Non-selective and MAO-A selective inhibitors are known to produce dangerous cardiovascular interactions with tyramine containing foods; the so-called "cheese reaction". L-Deprenyl is devoid of this effect.

## NC/C(=C/F)CCc1ccc(F)cc1 [(E)-2-(p-fluorophenethyl)-3-fluoroallylamine]
[1]; Brain
  ED50 MAO-A: > 5 mg/kg p.o.
[1]; Duodenum
  ED50 MAO-A: >>5 mg/kg p.o.
[1]; Heart
  ED50 MAO-A: 5 mg/kg p.o.
[1]; Liver
  ED50 MAO-A: > 5 mg/kg p.o.
[2]; Brain
  ED50 MAO-B: 0.025 mg/kg p.o.
[2]; Duodenum
  ED50 MAO-B: 0.25 mg/kg p.o.
[2]; Heart
  ED50 MAO-B: 0.5 mg/kg p.o.
[2]; Liver
  ED50 MAO-B: 0.01 mg/kg p.o.
[3]
  selectivity ratio in favor of MAO-B inhibition: 190
[4]; MPTP plus compound
  Striatal dopamine: 16.0 ± 0.4 ug/g ± SEM
[4]; compound alone, 1.25 mg/kg i.p.
  Striatal dopamine: 16.6 ± 0.9 ug/g ± SEM
[5]
  IC50: 680 nM
[6]; 1.8 mg/kg p.o.
  Tyramine potentiation ratio i.d.: 1.4
  Tyramine potentiation ratio i.v.: 0.8
[6]; 9 mg/kg p.o.
  Tyramine potentiation ratio i.d.: 1.3
  Tyramine potentiation ratio i.v.: 1.8
[6]; given acutely at 10 and 50 times the ED50 dose for inhibition of MAO-B
  interactions with tyramine: devoid of interactions with tyramine

## CN1CC=C(c2ccccc2)CC1 [MPTP, N-methyl-4-phenyl-1,2,3,6-tetrahydropyridine, reference compound]
[4]; MPTP alone, 20 mg/kg i.p.
  Striatal dopamine: 4.3 ± 0.4 ug/g ± SEM
